Experimental data: US20240407365A1, “Method for Treating Technical Products” (THOR GMBH, priority 2021, published 2024)

Assay: amount of CMIT remaining in water-based dispersion paint after storage, HPLC
Type: physicochemical
Details: NaPy 130 ppm, paint pH 8.3
Method: The amounts of 5-chloro-2-methyl-4-isothiazolinone and zinc oxide specified in Table 1 were added to and homogeneously incorporated in aliquots of a commercially available, preservative-free, water-based matt interior dispersion paint (pH: 8.3; binder: ethylene vinyl acetate; pigment volume concentration (PVC): 77%). After 30 to 45 minutes, the sodium pyrithione was then added. The controls used were samples containing chloro-2-methyl-4-isothiazolinone and sodium pyrithione without zinc oxide and samples containing chloro-2-methyl-4-isothiazolinone only. The samples were stored at 21° C. and, after the time intervals specified in Table 1 (4 hours, 24 hours, 72 hours, 168 hours and 336 hours), the amount of chloro-2-methyl-4-isothiazolinone remaining in the paint was determined with the aid of HPLC analyses.

Structure (SMILES): Cn1sc(Cl)cc1=O [CIMT, 5-chloro-2-methyl-4-isothiazolinone]
- CIMT [ppm] after storage at 21° C. 72 h (CMIT 50 ppm, ZnO 150 ppm): 11 ppm
- CIMT [ppm] after storage at 21° C. 168 h (CMIT 50 ppm, ZnO 150 ppm): 8 ppm
- CIMT [ppm] after storage at 21° C. 336 h (CMIT 50 ppm, ZnO 150 ppm): 1 ppm
- CIMT [ppm] after storage at 21° C. 4 [h] (CMIT 50 ppm, ZnO 225 ppm): 38 ppm
- CIMT [ppm] after storage at 21° C. 24 h (CMIT 50 ppm, ZnO 225 ppm): 29 ppm
- CIMT [ppm] after storage at 21° C. 72 h (CMIT 50 ppm, ZnO 225 ppm): 21 ppm
- CIMT [ppm] after storage at 21° C. 168 h (CMIT 50 ppm, ZnO 225 ppm): 15 ppm
- CIMT [ppm] after storage at 21° C. 336 h (CMIT 50 ppm, ZnO 225 ppm): 8 ppm
- CIMT [ppm] after storage at 21° C. 4 [h] (CMIT 50 ppm, ZnO 300 ppm): 47 ppm
- CIMT [ppm] after storage at 21° C. 24 h (CMIT 50 ppm, ZnO 300 ppm): 42 ppm
- CIMT [ppm] after storage at 21° C. 72 h (CMIT 50 ppm, ZnO 300 ppm): 34 ppm
- CIMT [ppm] after storage at 21° C. 168 h (CMIT 50 ppm, ZnO 300 ppm): 24 ppm
- CIMT [ppm] after storage at 21° C. 336 h (CMIT 50 ppm, ZnO 300 ppm): 14 ppm
- CIMT [ppm] after storage at 21° C. 4 [h] (CMIT 50 ppm, ZnO 375 ppm): 49 ppm
- CIMT [ppm] after storage at 21° C. 24 h (CMIT 50 ppm, ZnO 375 ppm): 49 ppm
- CIMT [ppm] after storage at 21° C. 72 h (CMIT 50 ppm, ZnO 375 ppm): 40 ppm
- CIMT [ppm] after storage at 21° C. 168 h (CMIT 50 ppm, ZnO 375 ppm): 30 ppm
- CIMT [ppm] after storage at 21° C. 336 h (CMIT 50 ppm, ZnO 375 ppm): 23 ppm
- CIMT [ppm] after storage at 21° C. 4 [h] (CMIT 50 ppm, ZnO 450 ppm): 50 ppm
- CIMT [ppm] after storage at 21° C. 24 h (CMIT 50 ppm, ZnO 450 ppm): 47 ppm
- CIMT [ppm] after storage at 21° C. 72 h (CMIT 50 ppm, ZnO 450 ppm): 42 ppm
- CIMT [ppm] after storage at 21° C. 168 h (CMIT 50 ppm, ZnO 450 ppm): 35 ppm
- CIMT [ppm] after storage at 21° C. 336 h (CMIT 50 ppm, ZnO 450 ppm): 28 ppm
- CIMT [ppm] after storage at 21° C. 4 [h] (CMIT 50 ppm, ZnO 525 ppm): 51 ppm
- CIMT [ppm] after storage at 21° C. 24 h (CMIT 50 ppm, ZnO 525 ppm): 50 ppm
- CIMT [ppm] after storage at 21° C. 72 h (CMIT 50 ppm, ZnO 525 ppm): 45 ppm
- CIMT [ppm] after storage at 21° C. 168 h (CMIT 50 ppm, ZnO 525 ppm): 38 ppm
- CIMT [ppm] after storage at 21° C. 336 h (CMIT 50 ppm, ZnO 525 ppm): 31 ppm
- CIMT [ppm] after storage at 21° C. 4 [h] (CMIT 100 ppm, ZnO 0 ppm): 8 ppm
- CIMT [ppm] after storage at 21° C. 24 h (CMIT 100 ppm, ZnO 0 ppm): <LOQ (below the limit of determination (<0.5 ppm CMIT))
- CIMT [ppm] after storage at 21° C. 72 h (CMIT 100 ppm, ZnO 0 ppm): <LOQ (below the limit of determination (<0.5 ppm CMIT))
- CIMT [ppm] after storage at 21° C. 168 h (CMIT 100 ppm, ZnO 0 ppm): <LOQ (below the limit of determination (<0.5 ppm CMIT))
- CIMT [ppm] after storage at 21° C. 336 h (CMIT 100 ppm, ZnO 0 ppm): <LOQ (below the limit of determination (<0.5 ppm CMIT))
- CIMT [ppm] after storage at 21° C. 4 [h] (CMIT 100 ppm, ZnO 75 ppm): 37 ppm
- CIMT [ppm] after storage at 21° C. 24 h (CMIT 100 ppm, ZnO 75 ppm): 25 ppm
- CIMT [ppm] after storage at 21° C. 72 h (CMIT 100 ppm, ZnO 75 ppm): 13 ppm
- CIMT [ppm] after storage at 21° C. 168 h (CMIT 100 ppm, ZnO 75 ppm): 6 ppm
- CIMT [ppm] after storage at 21° C. 336 h (CMIT 100 ppm, ZnO 75 ppm): <LOQ (below the limit of determination (<0.5 ppm CMIT))
- CIMT [ppm] after storage at 21° C. 4 [h] (CMIT 100 ppm, ZnO 150 ppm): 52 ppm
- CIMT [ppm] after storage at 21° C. 24 h (CMIT 100 ppm, ZnO 150 ppm): 39 ppm
- CIMT [ppm] after storage at 21° C. 72 h (CMIT 100 ppm, ZnO 150 ppm): 28 ppm
- CIMT [ppm] after storage at 21° C. 168 h (CMIT 100 ppm, ZnO 150 ppm): 16 ppm
- CIMT [ppm] after storage at 21° C. 336 h (CMIT 100 ppm, ZnO 150 ppm): 5 ppm
- CIMT [ppm] after storage at 21° C. 4 [h] (CMIT 100 ppm, ZnO 225 ppm): 67 ppm
- CIMT [ppm] after storage at 21° C. 24 h (CMIT 100 ppm, ZnO 225 ppm): 56 ppm
- CIMT [ppm] after storage at 21° C. 72 h (CMIT 100 ppm, ZnO 225 ppm): 37 ppm
- CIMT [ppm] after storage at 21° C. 168 h (CMIT 100 ppm, ZnO 225 ppm): 22 ppm
- CIMT [ppm] after storage at 21° C. 336 h (CMIT 100 ppm, ZnO 225 ppm): 14 ppm
- CIMT [ppm] after storage at 21° C. 4 [h] (CMIT 100 ppm, ZnO 300 ppm): 83 ppm
- CIMT [ppm] after storage at 21° C. 24 h (CMIT 100 ppm, ZnO 300 ppm): 76 ppm
- CIMT [ppm] after storage at 21° C. 72 h (CMIT 100 ppm, ZnO 300 ppm): 64 ppm
- CIMT [ppm] after storage at 21° C. 168 h (CMIT 100 ppm, ZnO 300 ppm): 47 ppm
- CIMT [ppm] after storage at 21° C. 336 h (CMIT 100 ppm, ZnO 300 ppm): 28 ppm
- CIMT [ppm] after storage at 21° C. 4 [h] (CMIT 100 ppm, ZnO 375 ppm): 93 ppm
- CIMT [ppm] after storage at 21° C. 24 h (CMIT 100 ppm, ZnO 375 ppm): 89 ppm
- CIMT [ppm] after storage at 21° C. 72 h (CMIT 100 ppm, ZnO 375 ppm): 77 ppm
- CIMT [ppm] after storage at 21° C. 168 h (CMIT 100 ppm, ZnO 375 ppm): 63 ppm
- CIMT [ppm] after storage at 21° C. 336 h (CMIT 100 ppm, ZnO 375 ppm): 44 ppm
- CIMT [ppm] after storage at 21° C. 4 [h] (CMIT 100 ppm, ZnO 450 ppm): 102 ppm
- CIMT [ppm] after storage at 21° C. 24 h (CMIT 100 ppm, ZnO 450 ppm): 96 ppm
- CIMT [ppm] after storage at 21° C. 72 h (CMIT 100 ppm, ZnO 450 ppm): 88 ppm
- CIMT [ppm] after storage at 21° C. 168 h (CMIT 100 ppm, ZnO 450 ppm): 75 ppm
- CIMT [ppm] after storage at 21° C. 336 h (CMIT 100 ppm, ZnO 450 ppm): 61 ppm
- CIMT [ppm] after storage at 21° C. 4 [h] (CMIT 100 ppm, ZnO 525 ppm): 100 ppm
- CIMT [ppm] after storage at 21° C. 24 h (CMIT 100 ppm, ZnO 525 ppm): 101 ppm
- CIMT [ppm] after storage at 21° C. 72 h (CMIT 100 ppm, ZnO 525 ppm): 94 ppm
- CIMT [ppm] after storage at 21° C. 168 h (CMIT 100 ppm, ZnO 525 ppm): 84 ppm
- CIMT [ppm] after storage at 21° C. 336 h (CMIT 100 ppm, ZnO 525 ppm): 72 ppm
